This note sets out measurements from the supplement of paper PMC12698765.

± gives the standard deviation of the averaged measurements.

The test system of test [1] is 409B2 hiPSC (iCRISPR Cas9, FRMD7 editing). The test is described as follows: cell survival relative to solvent control (fold (ratio to mock)); higher = more surviving cells. As for the experimental part:
(§1)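 Subset screen of 55 drugs tested at 5 concentrations around the effective screening dose, in 409B2 iCRISPR Cas9 hiPSCs editing FRMD7 with a ssDNA donor. Drugs were applied for 24 h. Viability was read by resazurin and editing outcomes by amplicon sequencing (HDR, NHEJ <2 bp microhomology, MMEJ ≥2 bp microhomology). Values are relative to solvent mock controls; two biological replicates.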

The test system is the same in test [2]. The test can be described thus: HDR (precise edit) frequency relative to solvent control (fold (ratio to mock)); higher = more homology-directed repair outcomes. As to the method:
as §1

Test [3] has the same test system. The test is described as follows: MMEJ-attributed deletion frequency relative to solvent control (fold (ratio to mock)); higher = more MMEJ outcomes. As to the method: as §1
The test system is the same in test [4]. The test can be described thus: NHEJ-attributed indel frequency relative to solvent control (fold (ratio to mock)); higher = more NHEJ outcomes. As to the method:
as §1

`CC(=O)c1c(C)c2cnc(Nc3ccc(N4CCNCC4)cn3)nc2n(C2CCCC2)c1=O` (in DMSO): the cell survival in test [1] (2000 nM) is 0.475; in test [1] (5000 nM), 0.185; in test [1] (10000 nM), 0.0327; in test [1] (20000 nM) it was -0.0205; in test [1] (50000 nM) it was 0.00851. The HDR in test [2] (2000 nM) was 1.01 ± 0.011; in test [2] (5000 nM), 0.587 ± 0.11; in test [2] (10000 nM) it was 0.152 ± 0.029; in test [2] (20000 nM), 0.0501 ± 0.0028; in test [2] (50000 nM), 0.0996 ± 0.032. Further, the MMEJ-attributed deletion frequency worked out at 0.907 ± 0.03 in test [3] (2000 nM); 1.19 ± 0.17 in test [3] (5000 nM); 0.73 ± 0.046 in test [3] (10000 nM); 0.458 ± 0.082 in test [3] (20000 nM); 0.244 ± 0.076 in test [3] (50000 nM). Besides, the NHEJ-attributed indel frequency in test [4] (2000 nM) came out at 0.989 ± 0.048; in test [4] (5000 nM), 0.993 ± 0.073; in test [4] (10000 nM) it was 0.46 ± 0.24; in test [4] (20000 nM), 0.127 ± 0.018; in test [4] (50000 nM), 0.12 ± 0.036.

On to `Cc1ccc(C(=O)N(CCCN)[C@@H](c2nc3cc(Cl)ccc3c(=O)n2Cc2ccccc2)C(C)C)cc1` (in DMSO), for which the cell survival in test [1] (0.2 nM) amounted to 1.07; in test [1] (0.5 nM) it was 1.34; in test [1] (1 nM), 1.15; in test [1] (2 nM), 1.2; in test [1] (5 nM), 0.682. For the same compound, the HDR amounted to 1.1 ± 0.075 in test [2] (0.2 nM); 1.0454 ± 2.1e-05 in test [2] (0.5 nM); 1.08 ± 0.032 in test [2] (1 nM); 1.03 ± 0.032 in test [2] (2 nM); 1.18 ± 0.095 in test [2] (5 nM). The MMEJ-attributed deletion frequency in test [3] (0.2 nM) worked out at 1.01 ± 0.086; in test [3] (0.5 nM), 0.901 ± 0.032; in test [3] (1 nM), 1.01 ± 0.076; in test [3] (2 nM) it was 0.864 ± 0.08; in test [3] (5 nM) it was 0.961 ± 0.13. In addition, the NHEJ-attributed indel frequency in test [4] (0.2 nM) worked out at 0.957 ± 0.046; in test [4] (0.5 nM) it was 0.989 ± 0.019; in test [4] (1 nM), 0.9925 ± 0.0038; in test [4] (2 nM), 1.012 ± 0.0086; in test [4] (5 nM), 1.07 ± 0.041.

Turning to `O=C(c1cc(Cc2n[nH]c(=O)c3ccccc23)ccc1F)N1CCN(C(=O)C2CC2)CC1` (in DMSO), the cell survival in test [1] (200 nM) worked out at 0.395; in test [1] (500 nM), 0.388; in test [1] (1000 nM), 0.217; in test [1] (2000 nM), 0.106; in test [1] (5000 nM), 0.0246. Moreover, the HDR in test [2] (200 nM) is 1.28 ± 0.18; in test [2] (500 nM) it was 1.18 ± 0.16; in test [2] (1000 nM), 1.341 ± 0.0076; in test [2] (2000 nM), 1.03 ± 0.017; in test [2] (5000 nM), 0.432 ± 0.03. In addition, the MMEJ-attributed deletion frequency in test [3] (200 nM) worked out at 0.9 ± 0.073; in test [3] (500 nM), 0.64 ± 0.079; in test [3] (1000 nM), 0.705 ± 0.18; in test [3] (2000 nM) it was 0.614 ± 0.013; in test [3] (5000 nM), 0.746 ± 0.11. Further, the NHEJ-attributed indel frequency in test [4] (200 nM) is 0.814 ± 0.042; in test [4] (500 nM), 0.78 ± 0.042; in test [4] (1000 nM), 0.698 ± 0.076; in test [4] (2000 nM), 0.6123 ± 0.0021; in test [4] (5000 nM), 0.513 ± 0.04.

`CCN1CCN(Cc2ccc(Nc3ncc(F)c(-c4cc(F)c5nc(C)n(C(C)C)c5c4)n3)nc2)CC1` (in EtOH): the cell survival is 0.514 in test [1] (2000 nM); -0.00651 in test [1] (5000 nM); -0.00445 in test [1] (10000 nM); -0.00662 in test [1] (20000 nM); -0.00233 in test [1] (50000 nM). Besides, the HDR in test [2] (2000 nM) was determined as 0.589 ± 0.76; in test [2] (5000 nM) it was 0.0594 ± 0.017; in test [2] (10000 nM) it was 0.0558 ± 0.0014; in test [2] (20000 nM), 0.0719 ± 0.015; in test [2] (50000 nM), 0.0788 ± 0.0049. The MMEJ-attributed deletion frequency stood at 0.565 ± 0.58 in test [3] (2000 nM); 0.159 ± 0.15 in test [3] (5000 nM); 0.229 ± 0.044 in test [3] (10000 nM); 0.109 ± 0.062 in test [3] (20000 nM); 0.0743 ± 0.0014 in test [3] (50000 nM). In addition, the NHEJ-attributed indel frequency in test [4] (2000 nM) is 0.504 ± 0.61; in test [4] (5000 nM) it was 0.11 ± 0.075; in test [4] (10000 nM) it was 0.157 ± 0.018; in test [4] (20000 nM), 0.0938 ± 0.058; in test [4] (50000 nM) it was 0.0987 ± 0.029.

As for `CSCCC(N)C(=O)O` (racemic) [DL-Methionine] (in H2O), the cell survival in test [1] (20 nM) was 0.974; in test [1] (50 nM), 0.972; in test [1] (100 nM), 0.891; in test [1] (200 nM) it was 0.957; in test [1] (500 nM) it was 0.861. Further, the HDR in test [2] (20 nM) was determined as 1.001 ± 0.0057; in test [2] (50 nM) it was 0.932 ± 0.021; in test [2] (100 nM), 0.943 ± 0.051; in test [2] (200 nM), 0.937 ± 0.044; in test [2] (500 nM), 0.917 ± 0.011. The MMEJ-attributed deletion frequency in test [3] (20 nM) is 0.912 ± 0.069; in test [3] (50 nM), 0.924 ± 0.017; in test [3] (100 nM) it was 0.802 ± 0.018; in test [3] (200 nM) it was 0.877 ± 0.13; in test [3] (500 nM), 0.912 ± 0.042. Moreover, the NHEJ-attributed indel frequency in test [4] (20 nM) is 1.01 ± 0.025; in test [4] (50 nM), 1.038 ± 0.0021; in test [4] (100 nM) it was 1.04 ± 0.0044; in test [4] (200 nM) it was 1.03 ± 0.011; in test [4] (500 nM), 1.02 ± 0.016.

With `Nc1ncnc2c1ncn2C1CC(O)C(CO)O1` (stereo not given) [2'-Deoxyadenosine monohydrate] (in DMSO), the cell survival is 0.996 in test [1] (20 nM); 1.12 in test [1] (50 nM); 1 in test [1] (100 nM); 1.1 in test [1] (200 nM); 1.12 in test [1] (500 nM). For the same compound, the HDR amounted to 1.03 ± 0.021 in test [2] (20 nM); 1.02 ± 0.02 in test [2] (50 nM); 1.03 ± 0.11 in test [2] (100 nM); 1.01 ± 0.05 in test [2] (200 nM); 0.958 ± 0.062 in test [2] (500 nM). In addition, the MMEJ-attributed deletion frequency in test [3] (20 nM) was found to be 0.957 ± 0.043; in test [3] (50 nM), 0.99 ± 0.071; in test [3] (100 nM), 0.999 ± 0.11; in test [3] (200 nM) it was 1.02 ± 0.036; in test [3] (500 nM) it was 1.02 ± 0.2. The NHEJ-attributed indel frequency in test [4] (20 nM) is 1.01 ± 0.013; in test [4] (50 nM), 1.02 ± 0.015; in test [4] (100 nM), 1 ± 0.029; in test [4] (200 nM) it was 1.006 ± 0.008; in test [4] (500 nM) it was 1.01 ± 0.027.
